In US5672715A, “Herbicidal substituted 3-aryl-pyrazoles” (Monsanto Company, priority 1995, dated 1997):

Tests used:
Type in all cases: in vivo
[1] = tested on: Barnyardgrass; test: pre-emergence herbicide test; conditions: 0.25 lb/A; for inhibition at 280.212 g/ha: Echinochloa crus-galli, pre-emergence, read-out: % plant inhibition
How it was run: (§1)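 Sown seeds covered with dosed topsoil; carrier acetone or water; greenhouse, watered from below, optional 1/4 in overhead irrigation post-treatment; % inhibition at ~14 d.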

[2] = tested on: Bedstraw Catchweed; test: pre-emergence herbicide test; conditions: 0.25 lb/A; for inhibition at 280.212 g/ha: Galium aparine, pre-emergence, read-out: % plant inhibition
How it was run: as §1

[3] = tested on: Birdseye Speedwell; test: pre-emergence herbicide test; conditions: 0.25 lb/A; for inhibition at 280.212 g/ha: pre-emergence, read-out: % plant inhibition
How it was run: as §1

[4] = tested on: Blackgrass; test: pre-emergence herbicide test; conditions: 0.25 lb/A; for inhibition at 280.212 g/ha: Alopecurus myosuroides, pre-emergence, read-out: % plant inhibition
How it was run: as §1

[5] = tested on: Cocklebur; test: pre-emergence herbicide test; conditions: 0.25 lb/A; for inhibition at 280.212 g/ha: Xanthium strumarium, pre-emergence, read-out: % plant inhibition
How it was run: as §1

[6] = tested on: Common Chickweed; test: pre-emergence herbicide test; conditions: 0.25 lb/A; for inhibition at 280.212 g/ha: pre-emergence, read-out: % plant inhibition
How it was run: as §1

[7] = tested on: Corn; test: pre-emergence herbicide test; conditions: 0.25 lb/A; for inhibition at 280.212 g/ha: Zea mays, pre-emergence, read-out: % plant inhibition
How it was run: as §1

[8] = tested on: Downy Brome; test: pre-emergence herbicide test; conditions: 0.25 lb/A; for inhibition at 280.212 g/ha: Bromus tectorum, pre-emergence, read-out: % plant inhibition
How it was run: as §1

[9] = tested on: Giant Foxtail; test: pre-emergence herbicide test; conditions: 0.25 lb/A; for inhibition at 280.212 g/ha: Setaria faberi, pre-emergence, read-out: % plant inhibition
How it was run: as §1

[10] = tested on: Green Foxtail; test: pre-emergence herbicide test; conditions: 0.25 lb/A; for inhibition at 280.212 g/ha: Setaria viridis, pre-emergence, read-out: % plant inhibition
How it was run: as §1

[11] = tested on: Morning Glory; test: pre-emergence herbicide test; conditions: 0.25 lb/A; for inhibition at 280.212 g/ha: Ipomoea, pre-emergence, read-out: % plant inhibition
How it was run: as §1

[12] = tested on: Rape; test: pre-emergence herbicide test; conditions: 0.25 lb/A; for inhibition at 280.212 g/ha: pre-emergence, read-out: % plant inhibition
How it was run: as §1

[13] = tested on: Seedling Johnsongrass; test: pre-emergence herbicide test; conditions: 0.25 lb/A; for inhibition at 280.212 g/ha: Sorghum halepense, pre-emergence, read-out: % plant inhibition
How it was run: as §1

[14] = tested on: Soybean; test: pre-emergence herbicide test; conditions: 0.25 lb/A; for inhibition at 280.212 g/ha: Glycine max, pre-emergence, read-out: % plant inhibition
How it was run: as §1

[15] = tested on: Velvetleaf; test: pre-emergence herbicide test; conditions: 0.25 lb/A; for inhibition at 280.212 g/ha: Abutilon theophrasti, pre-emergence, read-out: % plant inhibition
How it was run: as §1

[16] = tested on: Wheat; test: pre-emergence herbicide test; conditions: 0.25 lb/A; for inhibition at 280.212 g/ha: Triticum aestivum, pre-emergence, read-out: % plant inhibition
How it was run: as §1

[17] = tested on: Wild Oats; test: pre-emergence herbicide test; conditions: 0.25 lb/A; for inhibition at 280.212 g/ha: Avena fatua, pre-emergence, read-out: % plant inhibition
How it was run: as §1

[18] = tested on: Barnyardgrass; test: post-emergence herbicide test; conditions: 0.25 lb/A; for inhibition at 280.212 g/ha: Echinochloa crus-galli, post-emergence, read-out: % plant inhibition
How it was run: (§2)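 Activity is given as percent inhibition of each species following foliar application. Pots were sprayed individually in a chamber once plants reached two to three weeks.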

[19] = tested on: Bedstraw Catchweed; test: post-emergence herbicide test; conditions: 0.25 lb/A; for inhibition at 280.212 g/ha: Galium aparine, post-emergence, read-out: % plant inhibition
How it was run: as §2

[20] = tested on: Birdseye Speedwell; test: post-emergence herbicide test; conditions: 0.25 lb/A; for inhibition at 280.212 g/ha: post-emergence, read-out: % plant inhibition
How it was run: as §2

[21] = tested on: Blackgrass; test: post-emergence herbicide test; conditions: 0.25 lb/A; for inhibition at 280.212 g/ha: Alopecurus myosuroides, post-emergence, read-out: % plant inhibition
How it was run: as §2

[22] = tested on: Cocklebur; test: post-emergence herbicide test; conditions: 0.25 lb/A; for inhibition at 280.212 g/ha: Xanthium strumarium, post-emergence, read-out: % plant inhibition
How it was run: as §2

[23] = tested on: Common Chickweed; test: post-emergence herbicide test; conditions: 0.25 lb/A; for inhibition at 280.212 g/ha: post-emergence, read-out: % plant inhibition
How it was run: as §2

[24] = tested on: Corn; test: post-emergence herbicide test; conditions: 0.25 lb/A; for inhibition at 280.212 g/ha: Zea mays, post-emergence, read-out: % plant inhibition
How it was run: as §2

[25] = tested on: Downy Brome; test: post-emergence herbicide test; conditions: 0.25 lb/A; for inhibition at 280.212 g/ha: Bromus tectorum, post-emergence, read-out: % plant inhibition
How it was run: as §2

[26] = tested on: Giant Foxtail; test: post-emergence herbicide test; conditions: 0.25 lb/A; for inhibition at 280.212 g/ha: Setaria faberi, post-emergence, read-out: % plant inhibition
How it was run: as §2

[27] = tested on: Green Foxtail; test: post-emergence herbicide test; conditions: 0.25 lb/A; for inhibition at 280.212 g/ha: Setaria viridis, post-emergence, read-out: % plant inhibition
How it was run: as §2

[28] = tested on: Morning Glory; test: post-emergence herbicide test; conditions: 0.25 lb/A; for inhibition at 280.212 g/ha: Ipomoea, post-emergence, read-out: % plant inhibition
How it was run: as §2

[29] = tested on: Rape; test: post-emergence herbicide test; conditions: 0.25 lb/A; for inhibition at 280.212 g/ha: post-emergence, read-out: % plant inhibition
How it was run: as §2

[30] = tested on: Seedling Johnsongrass; test: post-emergence herbicide test; conditions: 0.25 lb/A; for inhibition at 280.212 g/ha: Sorghum halepense, post-emergence, read-out: % plant inhibition
How it was run: as §2

[31] = tested on: Soybean; test: post-emergence herbicide test; conditions: 0.25 lb/A; for inhibition at 280.212 g/ha: Glycine max, post-emergence, read-out: % plant inhibition
How it was run: as §2

[32] = tested on: Velvetleaf; test: post-emergence herbicide test; conditions: 0.25 lb/A; for inhibition at 280.212 g/ha: Abutilon theophrasti, post-emergence, read-out: % plant inhibition
How it was run: as §2

[33] = tested on: Wheat; test: post-emergence herbicide test; conditions: 0.25 lb/A; for inhibition at 280.212 g/ha: Triticum aestivum, post-emergence, read-out: % plant inhibition
How it was run: as §2

[34] = tested on: Wild Oats; test: post-emergence herbicide test; conditions: 0.25 lb/A; for inhibition at 280.212 g/ha: Avena fatua, post-emergence, read-out: % plant inhibition
How it was run: as §2

SMILES: Cc1c(-c2cc(CS(C)(=O)=O)c(Cl)cc2F)nn(C)c1C(F)(F)F [Compound 28]
- inhibition at 280.212 g/ha [1]: 15%
- inhibition at 280.212 g/ha [2]: 40%
- inhibition at 280.212 g/ha [3]: 70%
- inhibition at 280.212 g/ha [4]: 30%
- inhibition at 280.212 g/ha [5]: 10%
- inhibition at 280.212 g/ha [6]: 25%
- inhibition at 280.212 g/ha [7]: 3%
- inhibition at 280.212 g/ha [8]: 0%
- inhibition at 280.212 g/ha [9]: 30%
- inhibition at 280.212 g/ha [10]: 90%
- inhibition at 280.212 g/ha [11]: 0%
- inhibition at 280.212 g/ha [12]: 5%
- inhibition at 280.212 g/ha [13]: 50%
- inhibition at 280.212 g/ha [14]: 0%
- inhibition at 280.212 g/ha [15]: 45%
- inhibition at 280.212 g/ha [16]: 0%
- inhibition at 280.212 g/ha [17]: 0%
- inhibition at 280.212 g/ha [18]: 10%
- inhibition at 280.212 g/ha [19]: 60%
- inhibition at 280.212 g/ha [20]: 85%
- inhibition at 280.212 g/ha [21]: 10%
- inhibition at 280.212 g/ha [22]: 40%
- inhibition at 280.212 g/ha [23]: 25%
- inhibition at 280.212 g/ha [24]: 40%
- inhibition at 280.212 g/ha [25]: 20%
- inhibition at 280.212 g/ha [26]: 25%
- inhibition at 280.212 g/ha [27]: 50%
- inhibition at 280.212 g/ha [28]: 65%
- inhibition at 280.212 g/ha [29]: 20%
- inhibition at 280.212 g/ha [30]: 20%
- inhibition at 280.212 g/ha [31]: 20%
- inhibition at 280.212 g/ha [32]: 60%
- inhibition at 280.212 g/ha [33]: 8%
- inhibition at 280.212 g/ha [34]: 15%

SMILES: Cc1c(-c2cc(C(=O)OCCC(C)C)c(Cl)cc2F)nn(C)c1C(F)(F)F [Compound 55]
- % plant inhibition [1]: 30%
- % plant inhibition [2]: 85%
- % plant inhibition [3]: 100%
- % plant inhibition [4]: 60%
- % plant inhibition [5]: 30%
- % plant inhibition [6]: 75%
- % plant inhibition [7]: 0%
- % plant inhibition [8]: 55%
- % plant inhibition [9]: 100%
- % plant inhibition [10]: 100%
- % plant inhibition [11]: 10%
- % plant inhibition [12]: 5%
- % plant inhibition [13]: 95%
- % plant inhibition [14]: 0%
- % plant inhibition [15]: 85%
- % plant inhibition [16]: 0%
- % plant inhibition [17]: 35%
- % plant inhibition [18]: 45%
- % plant inhibition [19]: 75%
- % plant inhibition [20]: 95%
- % plant inhibition [21]: 20%
- % plant inhibition [22]: 90%
- % plant inhibition [23]: 70%
- % plant inhibition [24]: 20%
- % plant inhibition [25]: 20%
- % plant inhibition [26]: 35%
- % plant inhibition [27]: 65%
- % plant inhibition [28]: 85%
- % plant inhibition [29]: 15%
- % plant inhibition [30]: 70%
- % plant inhibition [31]: 20%
- % plant inhibition [32]: 99%
- % plant inhibition [33]: 10%
- % plant inhibition [34]: 30%

SMILES: CCOC(=O)C=C(COC(=O)c1cc(-c2nn(C)c(C(F)(F)F)c2C)c(F)cc1Cl)OC [Compound 44]
- inhibition at 280.212 g/ha [1]: 10%
- inhibition at 280.212 g/ha [2]: 40%
- inhibition at 280.212 g/ha [3]: 85%
- inhibition at 280.212 g/ha [4]: 20%
- inhibition at 280.212 g/ha [5]: 0%
- inhibition at 280.212 g/ha [6]: 85%
- inhibition at 280.212 g/ha [7]: 0%
- inhibition at 280.212 g/ha [8]: 5%
- inhibition at 280.212 g/ha [9]: 50%
- inhibition at 280.212 g/ha [10]: 100%
- inhibition at 280.212 g/ha [11]: 50%
- inhibition at 280.212 g/ha [12]: 20%
- inhibition at 280.212 g/ha [13]: 40%
- inhibition at 280.212 g/ha [14]: 0%
- inhibition at 280.212 g/ha [15]: 60%
- inhibition at 280.212 g/ha [16]: 0%
- inhibition at 280.212 g/ha [17]: 5%
- inhibition at 280.212 g/ha [18]: 90%
- inhibition at 280.212 g/ha [19]: 100%
- inhibition at 280.212 g/ha [20]: 100%
- inhibition at 280.212 g/ha [21]: 25%
- inhibition at 280.212 g/ha [22]: 99%
- inhibition at 280.212 g/ha [23]: 95%
- inhibition at 280.212 g/ha [24]: 15%
- inhibition at 280.212 g/ha [25]: 35%
- inhibition at 280.212 g/ha [26]: 65%
- inhibition at 280.212 g/ha [27]: 90%
- inhibition at 280.212 g/ha [28]: 80%
- inhibition at 280.212 g/ha [29]: 45%
- inhibition at 280.212 g/ha [30]: 60%
- inhibition at 280.212 g/ha [31]: 10%
- inhibition at 280.212 g/ha [32]: 99%
- inhibition at 280.212 g/ha [33]: 15%
- inhibition at 280.212 g/ha [34]: 25%
